Assay results taken from ChEMBL document CHEMBL1136615, “Carbonic anhydrase inhibitors: inhibition of cytosolic isozymes I and II with sulfamide derivatives” (Bioorg Med Chem Lett, 2003).
pKi: −log10 of the molar value.

Key:
[1] = target: Carbonic anhydrase 2 (Homo sapiens, UniProt P00918)
Description: Inhibitory activity against human cloned isoenzyme carbonic anhydrase II (hCA II), by esterase method.

[2] = target: Carbonic anhydrase 1 (Homo sapiens, UniProt P00915)
Carbonic anhydrase 1, sequence (P00915 whole entry): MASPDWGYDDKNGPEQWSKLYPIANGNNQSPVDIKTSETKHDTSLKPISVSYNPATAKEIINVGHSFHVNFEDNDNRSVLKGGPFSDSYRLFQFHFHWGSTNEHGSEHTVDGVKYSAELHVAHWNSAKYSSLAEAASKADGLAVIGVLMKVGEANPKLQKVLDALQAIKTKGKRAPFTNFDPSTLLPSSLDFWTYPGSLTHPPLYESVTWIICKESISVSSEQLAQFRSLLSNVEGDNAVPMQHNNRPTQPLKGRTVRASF
Description: Inhibitory activity against human cloned isoenzyme carbonic anhydrase I (hCA I), by esterase method.

SMILES | pKi [1] | pKi [2]
NS(=O)(=O)N1CCCCCC1 | 6.88 | 6.79
NS(=O)(=O)N(C1CCCCC1)C1CCCCC1 | < 4.00 | < 4.00
CC(C)N(C(C)C)S(N)(=O)=O | < 4.00 | < 4.00
NS(=O)(=O)Nc1cccc(C(=O)c2ccccc2)c1 | 7.31 | 7.21
CCCCNS(N)(=O)=O | 6.83 | 6.76
NS(=O)(=O)NC1CCCCC1 | 6.35 | 6.79
NS(=O)(=O)N(Cc1ccccc1)Cc1ccccc1 | 6.19 | < 4.00
NS(=O)(=O)NC1C2CC3CC(C2)CC1C3 (stereo not given) | 6.05 | 6.02
CC(C)CN(CC(C)C)S(N)(=O)=O | < 4.00 | < 4.00

More lines, now with the values ahead:

pKi [1] | pKi [2] | SMILES
7.96 | 7.85 | COc1ccc(NS(N)(=O)=O)cc1
7.77 | 7.74 | NS(=O)(=O)Nc1ccc(I)cc1
– | 7.64 | NS(=O)(=O)Nc1ccc(Br)cc1
7.72 | 7.59 | CCOC(=O)c1ccc(NS(N)(=O)=O)cc1
7.82 | 7.72 | NS(=O)(=O)Nc1ccc(Cl)cc1
7.89 | 7.82 | Cc1ccc(NS(N)(=O)=O)cc1
6.91 | 6.88 | NS(=O)(=O)NCc1ccccc1
7.89 | 7.74 | NS(=O)(=O)Nc1ccc([N+](=O)[O-])cc1
7.92 | 7.80 | NS(=O)(=O)Nc1ccc(O)cc1
7.68 | 7.77 | CN(C)c1ccc(NS(N)(=O)=O)cc1
7.57 | 6.83 | NS(=O)(=O)NCCSSCCNS(N)(=O)=O
– | 7.89 | NS(=O)(=O)Nc1ccccc1 [PHENYLSULFAMIDE]
